The NIST ThermoML archive (doi:10.1021/je900048r)
Numbers after ± are expanded uncertainties.

Assay: xn = mol fraction of the nth substance listed
Details: Liquid, Other PVT measurement

CCCCn1cc[n+](C)c1.F[B-](F)(F)F [1-butyl-3-methylimidazolium tetrafluoroborate] + CC#N
mass density [kg/m3]
Details | x1 = 0.1 | x1 = 0.2 | x1 = 0.3 | x1 = 0.4 | x1 = 0.5 | x1 = 0.6 | x1 = 0.6999 | x1 = 0.7998 | x1 = 0.8993 | x1 = 1
313.15 K, 200 kPa | 893 ± 9 | 980 ± 10 | 1040 ± 10 | 1077 ± 11 | 1105 ± 11 | 1127 ± 11 | 1146 ± 12 | 1161 ± 12 | 1175 ± 12 | 1185 ± 12
313.15 K, 600 kPa | 894 ± 9 | 981 ± 10 | 1041 ± 10 | 1078 ± 11 | 1106 ± 11 | 1127 ± 11 | 1147 ± 12 | 1162 ± 12 | 1175 ± 12 | 1186 ± 12
313.15 K, 1000 kPa | 895 ± 9 | 982 ± 10 | 1041 ± 10 | 1078 ± 11 | 1106 ± 11 | 1128 ± 11 | 1147 ± 12 | 1162 ± 12 | 1175 ± 12 | 1186 ± 12
313.15 K, 1400 kPa | 895 ± 9 | 982 ± 10 | 1041 ± 10 | 1079 ± 11 | 1106 ± 11 | 1128 ± 11 | 1147 ± 12 | 1162 ± 12 | 1175 ± 12 | 1186 ± 12
313.15 K, 1800 kPa | 895 ± 9 | 983 ± 10 | 1041 ± 10 | 1079 ± 11 | 1106 ± 11 | 1128 ± 11 | 1147 ± 12 | 1163 ± 12 | 1176 ± 12 | 1187 ± 12
313.15 K, 2000 kPa | 896 ± 9 | 983 ± 10 | 1042 ± 10 | 1079 ± 11 | 1107 ± 11 | 1129 ± 11 | 1148 ± 12 | 1163 ± 12 | 1176 ± 12 | 1187 ± 12
353.15 K, 200 kPa | 857 ± 9 | 947 ± 10 | 1008 ± 10 | 1047 ± 10 | 1076 ± 11 | 1098 ± 11 | 1118 ± 11 | 1134 ± 11 | 1148 ± 12 | 1159 ± 12
353.15 K, 600 kPa | 858 ± 9 | 948 ± 10 | 1009 ± 10 | 1047 ± 10 | 1076 ± 11 | 1099 ± 11 | 1119 ± 11 | 1134 ± 11 | 1148 ± 12 | 1160 ± 12
353.15 K, 1000 kPa | 858 ± 9 | 948 ± 10 | 1009 ± 10 | 1048 ± 11 | 1077 ± 11 | 1099 ± 11 | 1119 ± 11 | 1134 ± 11 | 1148 ± 12 | 1160 ± 12
353.15 K, 1400 kPa | 858 ± 9 | 948 ± 10 | 1010 ± 10 | 1048 ± 11 | 1077 ± 11 | 1100 ± 11 | 1119 ± 11 | 1134 ± 11 | 1149 ± 12 | 1160 ± 12
353.15 K, 1800 kPa | 859 ± 9 | 949 ± 10 | 1010 ± 10 | 1049 ± 11 | 1077 ± 11 | 1100 ± 11 | 1120 ± 11 | 1134 ± 11 | 1149 ± 12 | 1161 ± 12
353.15 K, 2000 kPa | 859 ± 9 | 949 ± 10 | 1010 ± 10 | 1049 ± 11 | 1078 ± 11 | – | – | – | – | –
